Legend:
Assay in all cases: biochemical
[1] = target: T1, HCV NS3/4A protease D168A variant (Hepatitis C virus genotype 1a, UniProt P27958, C1185S/D1194A); type: biochemical
T1 construct: His-tag (cleaved yes); made in house; host or cells: Escherichia coli BL21(DE3), PET28a vector
Experimental: (§1) The HCV GT1a NS3/4A protease gene described in the Bristol Myers Squibb patent was synthesized by GenScript and cloned into a PET28a expression vector. Cys159 was mutated to a serine residue to prevent disulfide bond formation and facilitate crystallization. The D168A gene was engineered using the site-directed mutagenesis protocol from Stratagene. Protein expression and purification were carried out as previously described.
(§2) Km constants for GT1 and D168A protease were previously determined. […] Inner filter effect corrections were applied to the initial velocities (Vo) at each substrate concentration. Vo versus substrate concentration graphs were globally fit to the Michaelis-Menten equation to obtain the Km value.
(§3) For each assay, 2 nM of NS3/4A protease (GT1a and D168A) was pre-incubated at room temperature for 1 h with increasing concentration of inhibitors in assay buffer (50 mM Tris, 5% glycerol, 10 mM DTT, 0.6 mM LDAO, and 4% dimethyl sulfoxide, pH 7.5). Inhibition assays were performed in non-binding surface 96-well black half-area plates (Corning) in a reaction volume of 60 μL. […] Three independent data sets were collected for each inhibitor with each protease construct.

[2] = test system: HCV NS3/4A protease D168A variant; type: biochemical, Hepatitis C virus; details: Table S1, value in parentheses
Experimental: as §1, §2, §3

[3] = target: T2, wild-type HCV NS3/4A protease (GT1a) (Hepatitis C virus genotype 1a, UniProt P27958, C1185S); type: biochemical
T2 construct: His-tag (cleaved yes); made in house; host or cells: Escherichia coli BL21(DE3), PET28a vector
T2 sequence (P27958 1027-1208 C1185S): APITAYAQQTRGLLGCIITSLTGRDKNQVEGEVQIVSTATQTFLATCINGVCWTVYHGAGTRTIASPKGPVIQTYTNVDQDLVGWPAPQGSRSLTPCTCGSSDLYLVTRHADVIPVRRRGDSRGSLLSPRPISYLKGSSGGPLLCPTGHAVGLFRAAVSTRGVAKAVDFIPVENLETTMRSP
Experimental: as §1, §2, §3

T1 sequence (P27958 1027-1208 C1185S/D1194A): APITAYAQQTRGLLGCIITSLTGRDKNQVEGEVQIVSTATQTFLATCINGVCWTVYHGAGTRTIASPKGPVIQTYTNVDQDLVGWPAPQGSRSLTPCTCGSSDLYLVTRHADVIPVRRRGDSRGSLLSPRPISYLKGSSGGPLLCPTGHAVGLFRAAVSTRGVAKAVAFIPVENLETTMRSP

Compound | Ki [1] [µM] | Fold Change of D168A Ki with respect to GT1a wild-type [2] | Ki [3] [µM] | fold increase in potency towards WT compared to the parent compound ([3]; compared to parent compound) [fold]
COC(=O)N[C@H](C(=O)N[C@H]1CCCCC/C=C\[C@@H]2C[C@@]2(C(=O)NS(=O)(=O)C2(C)CC2)NC(=O)[C@@H]2C[C@@H](Oc3nc4cc(OC)ccc4nc3C)CN2C1=O)C(C)C [Inhibitor P4P5-1B, Methyl ((S)-1-(((2R,6S,13aS,14aR,16aS,Z)-2-((7-methoxy-3-methylquinoxalin-2-yl)oxy)-14a-(((1-methylcyclopropyl)sulfonyl)carbamoyl)-5,16-dioxo-1,2,3,5,6,7,8,9,10,11,13a,14,14a,15,16,16a-hexadecahydrocyclopropa[e]pyrrolo[1,2-a][1,4]diazacyclopentadecin-6-yl)amino)-3-methyl-1-oxobutan-2-yl)carbamate] | 0.102 ± 0.0068 | (8) fold | 0.013 ± 0.0008 | –
COc1ccc2nc(C)c(O[C@@H]3C[C@H]4C(=O)N[C@]5(C(=O)NS(=O)(=O)C6(C)CC6)C[C@H]5/C=C\CCCCC[C@H](NC(=O)OC5(C)CCC5)C(=O)N4C3)nc2c1 [NR02-61, 1-Methylcyclobutyl ((2R,6S,13aS,14aR,16aS,Z)-2-((7-methoxy-3-methylquinoxalin-2-yl)oxy)-14a-(((1-methylcyclopropyl)sulfonyl)carbamoyl)-5,16-dioxo-1,2,3,5,6,7,8,9,10,11,13a,14,14a,15,16,16a-hexadecahydrocyclopropa[e]pyrrolo [1,2-a][1,4]diazacyclopentadecin-6-yl)carbamate] | 0.0464 ± 0.0034 | (33) fold | 0.0014 ± 0.00013 | 4
COc1ccc2nc(C(F)(F)F)c(O[C@@H]3C[C@H]4C(=O)N[C@]5(C(=O)NS(=O)(=O)C6(C)CC6)C[C@H]5/C=C\CCCCC[C@H](NC(=O)OCC5(C(F)(F)F)CC5)C(=O)N4C3)nc2c1 [NR02-50, (1-(Trifluoromethyl)cyclopropyl)methyl ((2R,6S,13aS,14aR,16aS,Z)-2-((7-methoxy-3-(trifluoromethyl)quinoxalin-2-yl)oxy)-14a-(((1-methylcyclopropyl)sulfonyl)carbamoyl)-5,16-dioxo-1,2,3,5,6,7,8,9,10,11,13a,14,14a,15,16,16a-hexadecahydrocyclopropa[e]pyrrolo[1,2-a][1,4]diazacyclopentadecin-6-yl)carbamate] | 0.0395 ± 0.0051 | – | 0.00346 ± 0.00026 | –
COc1ccc2nc(C(F)(F)F)c(O[C@@H]3C[C@H]4C(=O)N[C@]5(C(=O)NS(=O)(=O)C6(C)CC6)C[C@H]5/C=C\CCCCC[C@H](NC(=O)O[C@H](C)C(C)C)C(=O)N4C3)nc2c1 [NR01-121, (R)-3-Methylbutan-2-yl ((2R,6S,13aS,14aR,16aS,Z)-2-((7-methoxy-3-(trifluoromethyl)quinoxalin-2-yl)oxy)-14a-(((1-methylcyclopropyl)sulfonyl)carbamoyl)-5,16-dioxo-1,2,3,5,6,7,8,9,10,11,13a,14,14a,15,16,16a-hexadecahydrocyclopropa[e]pyrrolo[1,2-a][1,4]diazacyclopentadecin-6-yl)carbamate] | 0.0104 ± 0.0009 | – | 0.00296 ± 0.00022 | –
CCC(CC)OC(=O)N[C@H]1CCCCC/C=C\[C@@H]2C[C@@]2(C(=O)NS(=O)(=O)C2(C)CC2)NC(=O)[C@@H]2C[C@@H](Oc3nc4cc(OC)ccc4nc3C(F)(F)F)CN2C1=O [NR02-52, Pentan-3-yl ((2R,6S,13aS,14aR,16aS,Z)-2-((7-methoxy-3-(trifluoromethyl)quinoxalin-2-yl)oxy)-14a-(((1-methylcyclopropyl)sulfonyl)carbamoyl)-5,16-dioxo-1,2,3,5,6,7,8,9,10,11,13a,14,14a,15,16,16a-hexadecahydrocyclopropa[e]pyrrolo[1,2-a][1,4]diazacyclopentadecin-6-yl)carbamate] | 0.0209 ± 0.0021 | – | 0.0046 ± 0.00066 | –
COc1ccc2nc(C)c(O[C@@H]3C[C@H]4C(=O)N[C@]5(C(=O)NS(=O)(=O)C6(C)CC6)C[C@H]5/C=C\CCCCC[C@H](NC(=O)O[C@H](C)C5CC5)C(=O)N4C3)nc2c1 [NR02-26, (R)-1-Cyclopropylethyl ((2R,6S,13aS,14aR,16aS,Z)-2-((7-methoxy-3-methylquinoxalin-2-yl)oxy)-14a-(((1-methylcyclopropyl)sulfonyl)carbamoyl)-5,16-dioxo-1,2,3,5,6,7,8,9,10,11,13a,14,14a,15,16,16a-hexadecahydrocyclopropa[e]pyrrolo[1,2-a][1,4]diazacyclopentadecin-6-yl)carbamate] | 0.0235 ± 0.0013 | – | 0.0015 ± 6e-05 | –
COc1ccc2nc(C(F)(F)F)c(O[C@@H]3C[C@H]4C(=O)N[C@]5(C(=O)NS(=O)(=O)C6(C)CC6)C[C@H]5/C=C\CCCCC[C@H](NC(=O)OC(C)(C)C(F)(F)F)C(=O)N4C3)nc2c1 [NR01-129, 1,1,1-Trifluoro-2-methylpropan-2-yl ((2R,6S,13aS,14aR,16aS,Z)-2-((7-methoxy-3-(trifluoromethyl)quinoxalin-2-yl)oxy)-14a-(((1-methylcyclopropyl)sulfonyl)carbamoyl)-5,16-dioxo-1,2,3,5,6,7,8,9,10,11,13a,14,14a,15,16,16a-hexadecahydrocyclopropa[e]pyrrolo[1,2-a][1,4]diazacyclopentadecin-6-yl)carbamate] | 0.0155 ± 0.0018 | – | 0.0036 ± 0.0003 | –
COc1ccc2nc(C(F)(F)F)c(O[C@@H]3C[C@H]4C(=O)N[C@]5(C(=O)NS(=O)(=O)C6(C)CC6)C[C@H]5/C=C\CCCCC[C@H](NC(=O)OC5CC(F)(F)C5)C(=O)N4C3)nc2c1 [NR01-151, 3,3-Difluorocyclobutyl ((2R,6S,13aS,14aR,16aS,Z)-2-((7-methoxy-3-(trifluoromethyl)quinoxalin-2-yl)oxy)-14a-(((1-methylcyclopropyl)sulfonyl)carbamoyl)-5,16-dioxo-1,2,3,5,6,7,8,9,10,11,13a,14,14a,15,16,16a-hexadecahydrocyclopropa[e]pyrrolo[1,2-a][1,4]diazacyclopentadecin-6-yl)carbamate] | 0.0432 ± 0.0063 | – | 0.0109 ± 0.0011 | –
COc1ccc2nc(C)c(O[C@@H]3C[C@H]4C(=O)N[C@]5(C(=O)NS(=O)(=O)C6(C)CC6)C[C@H]5/C=C\CCCCC[C@H](NC(=O)O[C@@H](C)C5CC5)C(=O)N4C3)nc2c1 [NR02-25, (S)-1-Cyclopropylethyl ((2R,6S,13aS,14aR,16aS,Z)-2-((7-methoxy-3-methylquinoxalin-2-yl)oxy)-14a-(((1-methylcyclopropyl)sulfonyl)carbamoyl)-5,16-dioxo-1,2,3,5,6,7,8,9,10,11,13a,14,14a,15,16,16a-hexadecahydrocyclopropa[e]pyrrolo [1,2-a][1,4]diazacyclopentadecin-6-yl)carbamate] | 0.0319 ± 0.0018 | – | 0.00184 ± 0.00012 | –
COc1ccc2nc(C)c(O[C@@H]3C[C@H]4C(=O)N[C@]5(C(=O)NS(=O)(=O)C6(C)CC6)C[C@H]5/C=C\CCCCC[C@H](NC(=O)O[C@@H](C)C(C)C)C(=O)N4C3)nc2c1 [NR01-99, (S)-3-Methylbutan-2-yl ((2R,6S,13aS,14aR,16aS,Z)-2-((7-methoxy-3-methylquinoxalin-2-yl)oxy)-14a-(((1-methylcyclopropyl)sulfonyl)carbamoyl)-5,16-dioxo-1,2,3,5,6,7,8,9,10,11,13a,14,14a,15,16,16a-hexadecahydrocyclopropa[e]pyrrolo[1,2-a][1,4]diazacyclopentadecin-6-yl)carbamate] | 0.0217 ± 0.0023 | – | 0.00191 ± 0.0003 | –
COc1ccc2nc(C(F)(F)F)c(O[C@@H]3C[C@H]4C(=O)N[C@]5(C(=O)NS(=O)(=O)C6(C)CC6)C[C@H]5/C=C\CCCCC[C@H](NC(=O)O[C@H](C)C5CC5)C(=O)N4C3)nc2c1 [NR02-34, (R)-1-Cyclopropylethyl ((2R,6S,13aS,14aR,16aS,Z)-2-((7-methoxy-3-(trifluoromethyl)quinoxalin-2-yl)oxy)-14a-(((1-methylcyclopropyl)sulfonyl)carbamoyl)-5,16-dioxo-1,2,3,5,6,7,8,9,10,11,13a,14,14a,15,16,16a-hexadecahydrocyclopropa[e]pyrrolo[1,2-a][1,4]diazacyclopentadecin-6-yl)carbamate] | 0.0262 ± 0.0006 | – | 0.0118 ± 0.0014 | –
COc1ccc2nc(C(F)(F)F)c(O[C@@H]3C[C@H]4C(=O)N[C@]5(C(=O)NS(=O)(=O)C6(C)CC6)C[C@H]5/C=C\CCCCC[C@H](NC(=O)O[C@@H]5CCC[C@H]5F)C(=O)N4C3)nc2c1 [NR02-09, (1R,2R)-2-Fluorocyclopentyl ((2R,6S,13aS,14aR,16aS,Z)-2-((7-methoxy-3-(trifluoromethyl)quinoxalin-2-yl)oxy)-14a-(((1-methylcyclopropyl)sulfonyl)carbamoyl)-5,16-dioxo-1,2,3,5,6,7,8,9,10,11,13a,14,14a,15,16,16a-hexadecahydrocyclopropa[e]pyrrolo[1,2-a][1,4]diazacyclopentadecin-6-yl)carbamate] | 0.0189 ± 0.0036 | – | 0.008 ± 0.0018 | –
COc1ccc2nc(C)c(O[C@@H]3C[C@H]4C(=O)N[C@]5(C(=O)NS(=O)(=O)C6(C)CC6)C[C@H]5/C=C\CCCCC[C@H](NC(=O)O[C@H](C)C(C)C)C(=O)N4C3)nc2c1 [NR01-119, (R)-3-Methylbutan-2-yl ((2R,6S,13aS,14aR,16aS,Z)-2-((7-methoxy-3-methylquinoxalin-2-yl)oxy)-14a-(((1-methylcyclopropyl)sulfonyl)carbamoyl)-5,16-dioxo-1,2,3,5,6,7,8,9,10,11,13a,14,14a,15,16,16a-hexadecahydrocyclopropa[e]pyrrolo[1,2-a][1,4]diazacyclopentadecin-6-yl)carbamate] | 0.0239 ± 0.0035 | – | 0.00152 ± 2e-05 | –
